Results from ChEMBL document CHEMBL1141074, “Pharmacophore-guided drug discovery investigations leading to bioactive 5-aminotetrahydropyrazolopyridines. Implications for the binding mode of heterocyclic dopamine D3 receptor agonists” (J Med Chem, 2005).

Columns and labels:
D(2) dopamine receptor [1] = biological target: T1, D(2) dopamine receptor (Homo sapiens, UniProt P14416); assay: Binding affinity towards human dopamine receptor 2 (long) expressed in Chinese hamster ovary cells using [3H]spiperone (0.5 nM) as radioligand; assay type: cell-based
T1 sequence (P14416 whole entry): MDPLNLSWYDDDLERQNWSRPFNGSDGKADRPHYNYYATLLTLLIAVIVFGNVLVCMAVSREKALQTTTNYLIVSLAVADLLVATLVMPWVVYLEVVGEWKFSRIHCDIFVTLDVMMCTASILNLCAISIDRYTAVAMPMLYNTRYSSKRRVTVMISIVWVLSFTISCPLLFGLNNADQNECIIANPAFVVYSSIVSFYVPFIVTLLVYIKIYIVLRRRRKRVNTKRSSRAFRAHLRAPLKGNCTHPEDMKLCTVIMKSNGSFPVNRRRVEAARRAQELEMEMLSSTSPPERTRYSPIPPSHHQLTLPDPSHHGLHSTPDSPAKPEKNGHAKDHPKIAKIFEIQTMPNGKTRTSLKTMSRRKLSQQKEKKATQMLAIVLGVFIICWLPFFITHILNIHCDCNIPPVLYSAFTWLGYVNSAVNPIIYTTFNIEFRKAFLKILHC

D(1A) dopamine receptor [2] = biological target: T2, D(1A) dopamine receptor (Sus scrofa, UniProt P50130); assay: Binding affinity towards porcine dopamine receptor 1 against radioligand [3H]-SCH- 23390
T2 sequence (P50130 whole entry): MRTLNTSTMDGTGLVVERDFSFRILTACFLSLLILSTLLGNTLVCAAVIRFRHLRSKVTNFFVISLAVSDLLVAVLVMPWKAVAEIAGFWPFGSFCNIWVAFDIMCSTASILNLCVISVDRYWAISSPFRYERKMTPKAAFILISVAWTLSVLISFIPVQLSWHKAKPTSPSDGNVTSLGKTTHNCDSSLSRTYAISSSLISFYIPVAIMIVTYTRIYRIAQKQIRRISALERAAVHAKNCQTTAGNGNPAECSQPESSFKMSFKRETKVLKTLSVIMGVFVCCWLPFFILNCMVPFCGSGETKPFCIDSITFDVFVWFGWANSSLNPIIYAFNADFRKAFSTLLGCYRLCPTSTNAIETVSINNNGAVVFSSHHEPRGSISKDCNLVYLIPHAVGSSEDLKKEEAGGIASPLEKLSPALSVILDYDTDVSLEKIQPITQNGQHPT

D(3) dopamine receptor [3] = biological target: T3, D(3) dopamine receptor (Homo sapiens, UniProt P35462); assay: Binding affinity towards human dopamine receptor 3 expressed in Chinese hamster ovary cells using [3H]spiperone (0.5 nM) as radioligand; assay type: cell-based
T3 sequence (P35462 whole entry): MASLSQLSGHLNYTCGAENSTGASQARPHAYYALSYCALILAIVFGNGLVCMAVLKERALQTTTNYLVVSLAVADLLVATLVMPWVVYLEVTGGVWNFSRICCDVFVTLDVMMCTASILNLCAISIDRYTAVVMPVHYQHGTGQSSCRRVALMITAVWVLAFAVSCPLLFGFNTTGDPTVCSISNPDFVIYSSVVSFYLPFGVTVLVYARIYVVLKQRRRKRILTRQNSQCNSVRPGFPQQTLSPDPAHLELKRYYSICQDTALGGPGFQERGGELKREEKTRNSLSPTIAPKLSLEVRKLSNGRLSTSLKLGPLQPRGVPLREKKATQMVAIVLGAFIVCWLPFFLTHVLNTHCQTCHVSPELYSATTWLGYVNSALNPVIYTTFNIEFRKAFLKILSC

D(2) dopamine receptor [4] = biological target: T1, D(2) dopamine receptor; assay: Binding affinity towards human dopamine receptor 2 (short) expressed in Chinese hamster ovary cells using [3H]spiperone (0.5 nM) as radioligand; assay type: cell-based
D(4) dopamine receptor [5] = biological target: T4, D(4) dopamine receptor (Homo sapiens, UniProt P21917); assay: Binding affinity towards human dopamine receptor 4.4 expressed in Chinese hamster ovary cells using [3H]spiperone (0.5 nM) as radioligand; assay type: cell-based
T4 sequence (P21917 whole entry): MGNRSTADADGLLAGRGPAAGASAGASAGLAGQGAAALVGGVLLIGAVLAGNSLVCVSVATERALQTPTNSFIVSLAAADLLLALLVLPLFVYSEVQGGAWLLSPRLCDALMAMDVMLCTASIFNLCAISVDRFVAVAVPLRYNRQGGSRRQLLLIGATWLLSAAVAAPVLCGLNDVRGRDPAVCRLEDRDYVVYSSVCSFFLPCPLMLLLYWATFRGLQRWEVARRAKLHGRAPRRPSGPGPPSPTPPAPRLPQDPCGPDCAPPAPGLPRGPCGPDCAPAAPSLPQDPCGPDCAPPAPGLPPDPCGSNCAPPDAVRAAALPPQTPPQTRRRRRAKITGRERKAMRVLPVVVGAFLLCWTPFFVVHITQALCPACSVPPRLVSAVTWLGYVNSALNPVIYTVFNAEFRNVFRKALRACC

D(3) dopamine receptor [6] = biological target: T3, D(3) dopamine receptor; assay: biochemical
D(1A) dopamine receptor [7] = biological target: T2, D(1A) dopamine receptor; assay: Binding affinity (low) towards porcine dopamine receptor 1 against radioligand [3H]-SCH- 23390
D(2) dopamine receptor [8] = biological target: T1, D(2) dopamine receptor; assay: High binding affinity towards human dopamine receptor 2 (long) expressed in Chinese hamster ovary cells using [3H]spiperone (0.5 nM) as radioligand; assay type: cell-based
D(4) dopamine receptor [9] = biological target: T4, D(4) dopamine receptor; assay: biochemical; assay type: cell-based, ovary
D(4) dopamine receptor [10] = biological target: T4, D(4) dopamine receptor; assay: biochemical; assay type: cell-based, ovary; remark: listed apart in the source
D(2) dopamine receptor [11] = biological target: T1, D(2) dopamine receptor; assay: biochemical; assay type: cell-based, ovary
D(2) dopamine receptor [12] = biological target: T1, D(2) dopamine receptor; assay: Low binding affinity towards human dopamine receptor 2 (short) expressed in Chinese hamster ovary cells using [3H]spiperone (0.5 nM) as radioligand; assay type: cell-based
D(3) dopamine receptor [13] = biological target: T3, D(3) dopamine receptor; assay: biochemical; remark: listed apart in the source
D(2) dopamine receptor [14] = biological target: T1, D(2) dopamine receptor; assay: Low binding affinity towards human dopamine receptor 2 (long) expressed in Chinese hamster ovary cells using [3H]spiperone (0.5 nM) as radioligand; assay type: cell-based
D(3) dopamine receptor [15] = biological target: T3, D(3) dopamine receptor; assay: Binding affinity towards dopamine D3 receptor
D(3) dopamine receptor [16] = biological target: T3, D(3) dopamine receptor; assay: Effective concentration against dopamine D3 receptor
D(1A) dopamine receptor [17] = biological target: T2, D(1A) dopamine receptor; assay: Binding affinity (low) towards porcine dopamine receptor 1 by using [3H]-SCH- 23390 (0.3 nM) as radioligand

Structure (SMILES) | Ki (D(2) dopamine receptor [1]) | Ki (D(1A) dopamine receptor [2]) | Ki (D(3) dopamine receptor [3]) | Ki (D(2) dopamine receptor [4]) | Ki (D(4) dopamine receptor [5]) | Ki (D(3) dopamine receptor [6]) | Ki (D(1A) dopamine receptor [7]) | Ki (D(2) dopamine receptor [8]) | Ki (D(4) dopamine receptor [9]) | Ki (D(4) dopamine receptor [10]) | Ki (D(2) dopamine receptor [11]) | Ki (D(2) dopamine receptor [12]) | Ki (D(3) dopamine receptor [13]) | Ki (D(2) dopamine receptor [14]) | pKi (D(3) dopamine receptor [15]) | EC50 (D(3) dopamine receptor [16]) | Ki (D(1A) dopamine receptor [17])
CCCNC1CCn2ncc(C(=O)OC)c2C1 (stereo not given) | > 100 µM | > 20 µM | 12 µM | > 100 µM | 90 µM | – | – | – | – | – | – | – | – | – | – | – | –
CCCN(CCC)C1CCn2ncc(CO)c2C1 (stereo not given) | > 20 µM | > 20 µM | 4 µM | > 20 µM | 16 µM | – | – | – | – | – | – | – | – | – | – | – | –
CCCN(CCC)[C@@H]1CCn2nccc2C1 | > 20 µM | > 20 µM | 2.7 µM | > 20 µM | 13 µM | – | – | – | – | – | – | – | – | – | – | – | –
CCCN(CCC)C1CCn2ncc(C(=O)OC)c2C1 (stereo not given) | > 20 µM | > 20 µM | 17 µM | > 20 µM | > 20 µM | – | – | – | – | – | – | – | – | – | – | – | –
CCCN(CCC)C1CCn2ncc(C=O)c2C1 (stereo not given) | 5.9 µM | > 20 µM | 12 µM | 4 µM | 14 µM | – | – | – | – | – | – | – | – | – | – | – | –
CCCN(CCC)C1CCn2ncc(Cl)c2C1 (stereo not given) | – | – | – | – | – | 0.0061 µM | – | 0.12 µM | 0.2 µM | 6.4 µM | 0.21 µM | 12 µM | 0.23 µM | > 20 µM | – | 0.0045 µM | > 20 µM

The remaining lines, values ahead:

Ki (D(2) dopamine receptor [1]) | Ki (D(1A) dopamine receptor [2]) | Ki (D(3) dopamine receptor [3]) | Ki (D(2) dopamine receptor [4]) | Ki (D(4) dopamine receptor [5]) | Ki (D(3) dopamine receptor [6]) | Ki (D(1A) dopamine receptor [7]) | Ki (D(2) dopamine receptor [8]) | Ki (D(4) dopamine receptor [9]) | Ki (D(4) dopamine receptor [10]) | Ki (D(2) dopamine receptor [11]) | Ki (D(2) dopamine receptor [12]) | Ki (D(3) dopamine receptor [13]) | Ki (D(2) dopamine receptor [14]) | pKi (D(3) dopamine receptor [15]) | EC50 (D(3) dopamine receptor [16]) | Ki (D(1A) dopamine receptor [17]) | Structure (SMILES)
– | – | – | – | – | 0.0067 µM | > 20 µM | 0.22 µM | 0.058 µM | 1.6 µM | 0.16 µM | 8.5 µM | 0.2 µM | 18 µM | – | – | – | CCCN(CCC)C1CCn2nccc2C1 (racemic)
– | – | – | – | – | 0.004 µM | – | 0.18 µM | 0.058 µM | 1.7 µM | 0.25 µM | 10 µM | 0.11 µM | 15 µM | 8.4 | 0.0034 µM | > 20 µM | CCCN(CCC)[C@H]1CCn2nccc2C1
